Results as given in patent US20260256792A1, “TREATMENT OF CHRONIC SPONTANEOUS URTICARIA BY ADMINISTERING (R)-2-[3-[4-AMINO-3-(2-FLUORO-4-PHENOXY-PHENYL)PYRAZOLO[3,4-D]PYRIMIDIN-1-YL]PIPERIDINE-1-CARBONYL]-4-METHYL-4-[4-(OXETAN-3-YL)PIPERAZIN-1-YL]PENT-2-ENENITRILE” (priority 2023, published 2026).

Tested on: patients with moderate-to-severe CSU
Assay: Phase 2 CSU study: safety (TEAEs, SAEs, AESIs), double-blind period
[1] = 400 mg BID (N = 41), double-blind period, safety population

For `CC(C)(C=C(C#N)C(=O)N1CCC[C@@H](n2nc(-c3ccc(Oc4ccccc4)cc3F)c3c(N)ncnc32)C1)N1CCN(C2COC2)CC1` [rilzabrutinib, (R)-2-[3-[4-amino-3-(2-fluoro-4-phenoxy-phenyl)pyrazolo[3,4-d]pyrimidin-1-yl]piperidine-1-carbonyl]-4-methyl-4-[4-(oxetan-3-yl)piperazin-1-yl]pent-2-enenitrile], the “Participants with any TEAE” value [1] was 30 (73.2) n (%), the “Participants with any TEAE leading to death” value (shortened to “Participants … to death”) [1] was 0 n (%) and the “Participants … to death” value (400 mg QPM (N = 38), double-blind period, safety population) was 0 n (%). The “Participants … to death” value (400 mg TID (N = 41), double-blind period, safety population) was 0 n (%), the “patients with ALT increases>3×ULN (AESI)” value (BID cohort) was 1 patient and the “patients with ALT increases>3×ULN (AESI)” value (QPM cohort) was 2 patients. For the same molecule, the “patients with ALT increases>3×ULN (AESI)” value (TID cohort) was 1 patient, the “drug-induced liver injuries (including Hy's law)” value (double-blind period) was “no drug-induced liver injuries” and the “severe/serious infections or opportunistic infections” value (double-blind period) was “no severe/serious infections or opportunistic infections”. The deaths (throughout the study) was “no deaths” and the “treatment-emergent SAEs” value (throughout the study, same incidence across all rilzabrutinib dosing groups) was 3.
